From ChEMBL document CHEMBL2169787, “The biology and chemistry of antifungal agents: a review” (2012)
In brackets after ≈: the same amount, converted by molar mass.

Tests used:
Format in all cases: functional
Cryptococcus neoformans [1] = assay: Antifungal activity against Cryptococcus neoformans after 72 hrs by NCCLS broth microdilution method
Candida = assay: Antifungal activity against Candida spp
Trichophyton rubrum = assay: Antifungal activity against Trichophyton rubrum
Candida parapsilosis [2] = assay: Antifungal activity against Candida parapsilosis; conditions: Lodderomyces parapsilosis
Candida tropicalis = assay: Antifungal activity against Candida tropicalis
Cryptococcus neoformans [3] = assay: Antifungal activity against Cryptococcus neoformans
[4] = Antifungal activity against Fonsecaea compacta
Candida albicans [5] = assay: Antifungal activity against Candida albicans; conditions: Candida albicans
Aspergillus fumigatus [6] = assay: Antifungal activity against Aspergillus fumigatus
Microsporum canis = assay: Antifungal activity against Microsporum canis
Microsporum = assay: Antifungal activity against Microsporum […]
Trichophyton tonsurans = assay: Antifungal activity against Trichophyton tonsurans
Staphylococcus aureus = assay: Antibacterial activity against Staphylococcus aureus
[7] = system: Mycobacterium tuberculosis; assay: Antibacterial activity against Mycobacterium tuberculosis
[8] = system: Trichophyton mentagrophytes; assay: Antifungal activity against Trichophyton mentagrophytes
Sporothrix schenckii = assay: Antifungal activity against Sporothrix schenckii
Candida parapsilosis [9] = assay: Antifungal activity against Candida parapsilosis ATCC 22019; conditions: Lodderomyces parapsilosis
Aspergillus niger [10] = assay: Antifungal activity against Aspergillus niger assessed as growth inhibition
Aspergillus flavus [11] = assay: Antifungal activity against Aspergillus flavus assessed as growth inhibition
Aspergillus flavus [12] = assay: Antifungal activity against Aspergillus flavus; conditions: for MIC: Aspergillus flavus
Aspergillus ochraceus = assay: Antifungal activity against Aspergillus ochraceus
Lasiodiplodia theobromae = assay: Antifungal activity against Botryodiplodia theobromae
Fusarium verticillioides = assay: Antifungal activity against Fusarium moniliforme
Aspergillus niger [13] = assay: Antifungal activity against Aspergillus niger
Aspergillus fumigatus [14] = assay: Antifungal activity against Aspergillus fumigatus AF980003
Candida albicans [15] = assay: Antifungal activity against Candida albicans CA980001
Aspergillus fumigatus [16] = assay: Ratio of compound MIC to itraconazole MIC for Aspergillus fumigatus AF980003
Candida albicans [17] = assay: Ratio of compound MIC to itraconazole MIC for Candida albicans CA980001
Candida albicans [18] = assay: Antifungal activity against Candida albicans relative to fluconazole
Aspergillus fumigatus [19] = assay: Antifungal activity against Aspergillus fumigatus relative to fluconazole

**Q.** For `CCC(c1cccc2ccccc12)N(C)C/C=C/C#CC(C)(C)C` (stereo not given), which MIC50 (Cryptococcus neoformans [1]) is on record?
**A.** 0.5 µg/mL (≈ 1.56 µM)

**Q.** Which inhibition zone (IZ) (Candida) does the source give for NYSTATIN here?
**A.** 20 mm

**Q.** For `N#Cc1ccc(N(CC(O)(Cn2cncn2)c2ccc(F)cc2F)C2CC2)cc1` (stereo not given), which MIC (Trichophyton rubrum) is on record?
**A.** 0.125 µg/mL (≈ 0.316 µM)

**Q.** What about the MIC (Candida parapsilosis [2]) of the same molecule?
**A.** 0.125 µg/mL (≈ 0.316 µM)

**Q.** And the MIC (Candida tropicalis)?
**A.** 0.125 µg/mL (≈ 0.316 µM)

**Q.** What about the MIC (Cryptococcus neoformans [3]) of the same molecule?
**A.** 0.125 µg/mL (≈ 0.316 µM)

**Q.** What about the MIC [4] of the same molecule?
**A.** 0.125 µg/mL (≈ 0.316 µM)

**Q.** And the MIC (Candida albicans [5])?
**A.** 0.125 µg/mL (≈ 0.316 µM)

**Q.** And the MIC (Aspergillus fumigatus [6])?
**A.** 0.125 µg/mL (≈ 0.316 µM)

**Q.** What about the MIC (Microsporum canis) of the same molecule?
**A.** 0.125 µg/mL (≈ 0.316 µM)

**Q.** For `OC(CN1CCN(c2ccc(OCc3ccncc3)cc2)CC1)(Cn1cncn1)c1ccccc1` (stereo not given), which MIC (Trichophyton rubrum) is on record?
**A.** 0.0625 µg/mL (≈ 0.133 µM)

**Q.** And the MIC (Candida parapsilosis [2])?
**A.** 0.0625 µg/mL (≈ 0.133 µM)

**Q.** And the MIC (Candida tropicalis)?
**A.** 0.0625 µg/mL (≈ 0.133 µM)

**Q.** What about the MIC (Cryptococcus neoformans [3]) of the same molecule?
**A.** 0.0625 µg/mL (≈ 0.133 µM)

**Q.** What about the MIC (Microsporum) of the same molecule?
**A.** 0.0625 µg/mL (≈ 0.133 µM)

**Q.** And the MIC (Aspergillus fumigatus [6])?
**A.** 0.0625 µg/mL (≈ 0.133 µM)

**Q.** With `Clc1ccc(COC(Cn2ccnc2)c2ccc(Cl)cc2Cl)c(Cl)c1` (stereo not given) [MICONAZOLE] as the molecule, how does the MIC (Candida) read?
**A.** 2 µg/mL (≈ 4.81 µM)

**Q.** And the MIC (Trichophyton rubrum)?
**A.** 0.4 µg/mL (≈ 0.961 µM)

**Q.** And the MIC (Trichophyton tonsurans)?
**A.** 0.2 µg/mL (≈ 0.481 µM)

**Q.** For `CCC(C)n1ncn(-c2ccc(N3CCN(c4ccc(OCC5COC(Cn6cncn6)(c6ccc(Cl)cc6Cl)O5)cc4)CC3)cc2)c1=O` (stereo not given) [ITRACONAZOLE], which MIC (Candida) is on record?
**A.** 2 µg/mL (≈ 2.83 µM)

**Q.** And the MIC (Trichophyton rubrum)?
**A.** 0.0625 µg/mL (≈ 0.0886 µM)

**Q.** What about the MIC (Candida parapsilosis [2]) of the same molecule?
**A.** 0.0625 µg/mL (≈ 0.0886 µM)

**Q.** What about the MIC (Candida tropicalis) of the same molecule?
**A.** 0.0625 µg/mL (≈ 0.0886 µM)

**Q.** And the MIC (Cryptococcus neoformans [3])?
**A.** 0.0625 µg/mL (≈ 0.0886 µM)

**Q.** What about the MIC (Microsporum) of the same molecule?
**A.** 0.0625 µg/mL (≈ 0.0886 µM)

**Q.** And the MIC (Aspergillus fumigatus [6])?
**A.** 0.0625 µg/mL (≈ 0.0886 µM)

**Q.** With `Cc1cccc(C2=NN(C(N)=S)C(c3cccnc3)C2)c1` (stereo not given) as the molecule, how does the MIC (Staphylococcus aureus) read?
**A.** 128 µg/mL (≈ 432 µM)

**Q.** What about the MIC [7] of the same molecule?
**A.** 6.25 µg/mL (≈ 21.1 µM)

**Q.** With `O=C1C(CO)=C(Sc2ccccc2)C(=O)c2ccccc21` as the molecule, how does the MIC [8] read?
**A.** 0.78 µg/mL (≈ 2.63 µM)

**Q.** What about the MIC (Sporothrix schenckii) of the same molecule?
**A.** 0.78 µg/mL (≈ 2.63 µM)

**Q.** And the MIC (Cryptococcus neoformans [3])?
**A.** 0.78 µg/mL (≈ 2.63 µM)

**Q.** And the MIC (Candida albicans [5])?
**A.** 0.78 µg/mL (≈ 2.63 µM)

**Q.** And the MIC (Aspergillus fumigatus [6])?
**A.** 0.78 µg/mL (≈ 2.63 µM)

**Q.** What about the MIC (Microsporum canis) of the same molecule?
**A.** 0.78 µg/mL (≈ 2.63 µM)

**Q.** For `C[C@H](CCCN1C=NN(CC(O)(Cn2cncn2)c2ccc(F)cc2F)C1)[C@H]1CC[C@H]2[C@@H]3[C@H](O)C[C@@H]4CCCC[C@]4(C)[C@H]3CC[C@]12C` (stereo not given in full), which MIC (Sporothrix schenckii) is on record?
**A.** 2.18 µg/mL (≈ 3.34 µM)

**Q.** What about the MIC (Candida albicans [5]) of the same molecule?
**A.** 2.18 µg/mL (≈ 3.34 µM)

**Q.** What about the MIC (Candida parapsilosis [9]) of the same molecule?
**A.** 2.18 µg/mL (≈ 3.34 µM)

**Q.** With `Cc1ncc([N+](=O)[O-])n1CC(O)CCl` (stereo not given) [ORNIDAZOLE] as the molecule, how does the MIC (Trichophyton tonsurans) read?
**A.** 0.8 µg/mL (≈ 3.64 µM)

**Q.** With `N#CC(=C1CCCCC1)c1nc2cc(Cl)ccc2o1` as the molecule, how does the “growth inhibition (GI)” value (Aspergillus niger [10]) read?
**A.** 60%

**Q.** What about the “growth inhibition (GI)” value (Aspergillus flavus [11]) of the same molecule?
**A.** 60%

**Q.** What does the source list for `N#CC1=C(N)OC2=C(SC3=NC4=C(C(=O)CCC4)C(c4ccc(F)cc4)N32)C1c1ccc(Cl)cc1` (stereo not given)?
**A.** MIC (Aspergillus flavus [12]): 40 µg/mL (≈ 79.2 µM); MIC (Aspergillus ochraceus): 40 µg/mL (≈ 79.2 µM)

**Q.** What does the source list for `OCC1CC(c2ccc(-c3ccccc3)cc2)N(c2ccc(F)cc2)O1` (stereo not given)?
**A.** MIC (Lasiodiplodia theobromae): 2.5 µg/mL (≈ 7.16 µM); MIC (Aspergillus flavus [12]): 2.5 µg/mL (≈ 7.16 µM); MIC (Fusarium verticillioides): 2.5 µg/mL (≈ 7.16 µM)

**Q.** For `O=C(Nc1ccccc1-c1nnc(-c2ccccc2)o1)c1ccccc1`, which “inhibition zone (IZ)” value (Aspergillus flavus [12]) is on record?
**A.** 11 mm

**Q.** And the “inhibition zone (IZ)” value (Aspergillus niger [13])?
**A.** 15 mm

**Q.** With `CC1=NN(c2ccccc2)C(=O)C12C(C(=O)OC(C)C)C2(c1ccccc1)c1ccccc1` (stereo not given) as the molecule, how does the MIC (Candida) read?
**A.** 25 µg/mL (≈ 57 µM)

**Q.** For `CCOC(=O)C1C2(C(=O)N(c3ccccc3)N=C2C)C1(c1ccccc1)c1ccccc1` (stereo not given), which MIC (Candida) is on record?
**A.** 25 µg/mL (≈ 58.9 µM)

**Q.** With `CC1=NN(c2ccccc2)C(=O)C12C(C)(C(=O)OC(C)C)C2(c1ccccc1)c1ccccc1` (stereo not given) as the molecule, how does the MIC (Candida) read?
**A.** 25 µg/mL (≈ 55.2 µM)

**Q.** For `O=C1CCCC2=C1C(c1ccc(F)cc1)N1C(=O)CSC1=N2` (stereo not given), which MIC (Aspergillus flavus [12]) is on record?
**A.** 40 µg/mL (≈ 126 µM)

**Q.** What about the MIC (Aspergillus ochraceus) of the same molecule?
**A.** 40 µg/mL (≈ 126 µM)

**Q.** For `COc1ccc(N2OC(CO)CC2c2ccc(-c3ccccc3)cc2)cc1` (stereo not given), which MIC (Lasiodiplodia theobromae) is on record?
**A.** 2.5 µg/mL (≈ 6.92 µM)

**Q.** And the MIC (Aspergillus flavus [12])?
**A.** 2.5 µg/mL (≈ 6.92 µM)

**Q.** What about the MIC (Fusarium verticillioides) of the same molecule?
**A.** 2.5 µg/mL (≈ 6.92 µM)

**Q.** Which MIC (Cryptococcus neoformans [3]) does the source give for `OC(Cn1cncn1)(Cn1cncn1)c1ccc(F)cc1F` [FLUCONAZOLE] here?
**A.** 0.53 µg/mL (≈ 1.73 µM)

**Q.** What does the source list for `Clc1ccccc1Cn1cc(Cn2ccnc2)c2cc(Br)ccc21`?
**A.** MIC (Aspergillus fumigatus [14]): 8 µg/mL (≈ 20 µM); MIC (Candida albicans [15]): 8 µg/mL (≈ 20 µM); Ratio (Aspergillus fumigatus [16]): 16; Ratio (Candida albicans [17]): 16

**Q.** Which MIC (Candida) does the source give for `CC1=NN(c2ccccc2)C(=O)C12C(C#N)C2(c1ccccc1)c1ccccc1` (stereo not given) here?
**A.** 25 µg/mL (≈ 66.2 µM)

**Q.** Which MIC (Lasiodiplodia theobromae) does the source give for `COc1ccc(N2OC(c3ccccc3)CC2c2ccc(-c3ccccc3)cc2)cc1` (stereo not given) here?
**A.** 2.5 µg/mL (≈ 6.13 µM)

**Q.** And the MIC (Aspergillus flavus [12])?
**A.** 2.5 µg/mL (≈ 6.13 µM)

**Q.** And the MIC (Fusarium verticillioides)?
**A.** 2.5 µg/mL (≈ 6.13 µM)

**Q.** With `CN(CC(O)(Cn1cncn1)c1ccc(F)cc1F)C1CC1` (stereo not given) as the molecule, how does the MIC (Trichophyton rubrum) read?
**A.** 0.125 µg/mL (≈ 0.405 µM)

**Q.** What about the MIC (Candida parapsilosis [2]) of the same molecule?
**A.** 0.125 µg/mL (≈ 0.405 µM)

**Q.** What about the MIC (Candida tropicalis) of the same molecule?
**A.** 0.125 µg/mL (≈ 0.405 µM)

**Q.** And the MIC (Cryptococcus neoformans [3])?
**A.** 0.125 µg/mL (≈ 0.405 µM)

**Q.** What about the MIC [4] of the same molecule?
**A.** 0.125 µg/mL (≈ 0.405 µM)

**Q.** What about the MIC (Candida albicans [5]) of the same molecule?
**A.** 0.125 µg/mL (≈ 0.405 µM)

**Q.** And the MIC (Aspergillus fumigatus [6])?
**A.** 0.125 µg/mL (≈ 0.405 µM)

**Q.** What about the MIC (Microsporum canis) of the same molecule?
**A.** 0.125 µg/mL (≈ 0.405 µM)

**Q.** For `CCCCCCCCCC1C=C(CCC2C(OC)OC3COC(c4ccccc4)OC3C2CCC2CN(CCCCCCCCC)N=N2)N=N1` (stereo not given), which “fold change (FC)” value (Candida albicans [18]) is on record?
**A.** 14

**Q.** What about the “fold change (FC)” value (Aspergillus fumigatus [19]) of the same molecule?
**A.** 14

**Q.** With `OC(CN1CCN(c2ccc(OCc3ccc(F)cc3)cc2)CC1)(Cn1cncn1)c1ccccc1` (stereo not given) as the molecule, how does the MIC (Trichophyton rubrum) read?
**A.** 0.0625 µg/mL (≈ 0.128 µM)

**Q.** What about the MIC (Candida parapsilosis [2]) of the same molecule?
**A.** 0.0625 µg/mL (≈ 0.128 µM)

**Q.** And the MIC (Candida tropicalis)?
**A.** 0.0625 µg/mL (≈ 0.128 µM)

**Q.** What about the MIC (Cryptococcus neoformans [3]) of the same molecule?
**A.** 0.0625 µg/mL (≈ 0.128 µM)

**Q.** And the MIC (Microsporum)?
**A.** 0.0625 µg/mL (≈ 0.128 µM)

**Q.** And the MIC (Aspergillus fumigatus [6])?
**A.** 0.0625 µg/mL (≈ 0.128 µM)
